{
  "source": "patent US20220362153A1",
  "about": "“COMPOSITIONS AND METHODS FOR PULMONARY SURFACTANT-BIOMIMETIC NANOPARTICLES” (priority 2019, published 2022)",
  "key": {"[1]": {"tested_on": "gap junctions between AMs and AECs", "assay": "Gap junction blockade in vivo", "set-up": "species or system mice", "conditions": "for effect on PS-GAMP adjuvanticity (IgG2c): i.p. prior to and during immunization"}, "GZ89 H3N2 virus": {"tested_on": "GZ89 H3N2 virus", "set-up": "species or system mice", "conditions": "mouse, in vivo"}, "[2]": {"conditions": "mouse, in vivo"}, "[3]": {"tested_on": "immune mediators (Ifnb1, Gmcsf, Tnf, Ccl2, Ccl3, Ccl5, Cxcl10)", "conditions": "mouse, in vivo"}, "CA09 H1N1 vaccine": {"tested_on": "CA09 H1N1 vaccine", "assay_type": "in vivo, C57BL/6 mice", "conditions": "20 μg, 2 weeks"}, "SH13 H7N9 virus": {"tested_on": "SH13 H7N9 virus", "set-up": "species or system mice", "conditions": "mouse, in vivo"}, "[4]": {"conditions": "i.p. inhibitor, i.n. SRB-nano4, 12 h"}},
  "data": [
    {"compound": "CC1(C)[C@@H](OC(=O)CCC(=O)O)CC[C@]2(C)[C@H]3C(=O)C=C4[C@@H]5C[C@@](C)(C(=O)O)CC[C@]5(C)CC[C@@]4(C)[C@]3(C)CC[C@@H]12", "note": "[CBX, carbenoxolone]", "values": [
      {"measurement": "SRB uptake by AMs", "setting": "[1]; [4]", "result": "did not affect SRB uptake by AMs"},
      {"measurement": "entry of SRB into AECs", "setting": "[1]; [4]", "result": "blocked"},
      {"measurement": "effect on PS-GAMP adjuvanticity (IgG2c)", "setting": "[1]", "result": "blunted substantially"},
      {"measurement": "Ifnb1 transcription in AMs", "setting": "[1]; lungs receiving PS-GAMP, 12 h", "result": "increasing Ifnb1 transcription in AMs"},
      {"measurement": "transcription of Ifnb1 and Gmcsf in AECs", "setting": "[1]; lungs receiving PS-GAMP, 12 h", "result": "greatly diminished"},
      {"measurement": "reduction of recruitment of CD11b+ DCs", "setting": "[1]; vaccine + PS-GAMP, lung, 24 h", "result": 50, "unit": "%"}
    ]},
    {"compound": "CCCCCCCCc1ccc(CCC(N)(CO)CO)cc1", "note": "[FTY720]", "values": [
      {"measurement": "effect on cross-protection elicited by vaccine/PS-GAMP", "setting": "GZ89 H3N2 virus", "result": "not compromised"}
    ]},
    {"compound": "Cc1ccc(Cl)c(Nc2ccccc2C(=O)O)c1Cl", "note": "[meclofenamate]", "values": [
      {"measurement": "effect on PS-GAMP adjuvanticity (IgG2c)", "setting": "[1]", "result": "blunted substantially"}
    ]},
    {"compound": "CCOC(=O)C1=C[C@@H](OC(CC)CC)[C@H](NC(C)=O)[C@@H](N)C1", "note": "[oseltamivir]", "values": [
      {"measurement": "control of CA09 H1N1 viral infection", "setting": "CA09 H1N1 virus; unimmunized mice, 20 mg/kg/day", "result": "effectively control CA09H1N1"}
    ]},
    {"compound": "CC(=O)c1ccc2c(c1)[C@H](NC(=O)c1ccc(F)c(Cl)c1)[C@H](O)C(C)(C)O2", "note": "[tonabersat]", "values": [
      {"measurement": "effect on PS-GAMP adjuvanticity (IgG2c)", "setting": "[1]", "result": "blunted substantially"}
    ]},
    {"compound": "cholera toxin [CT]", "values": [
      {"measurement": "histology of lungs, nasal tissue, and brains", "setting": "[2]", "result": "massive inflammatory cell infiltrates in the lung"},
      {"measurement": "cytokine production in the brain", "setting": "[3]", "result": "measurable cytokine mRNA expression in the brains of some mice"}
    ]},
    {"compound": "poly IC", "values": [
      {"measurement": "lower efficacy in augmenting BALF IgA (vs PS-GAMP)", "setting": "CA09 H1N1 vaccine", "result": 30, "unit": "fold"},
      {"measurement": "lower efficacy in augmenting HAI titers (vs PS-GAMP)", "setting": "CA09 H1N1 vaccine", "result": "fivefold"},
      {"measurement": "lower efficacy in augmenting serum IgG (vs PS-GAMP)", "setting": "CA09 H1N1 vaccine", "result": 100, "unit": "fold"},
      {"measurement": "heterosubtypic protection from SH13 H7N9 challenge", "setting": "SH13 H7N9 virus", "result": "failed to provoke significant heterosubtypic protection"},
      {"measurement": "body weight loss after 10×LD50 CA09 H1N1 challenge", "setting": "CA09 H1N1 virus; mouse, in vivo", "result": "severe body weight loss"},
      {"measurement": "protection against 10×LD50 CA09 H1N1 viral challenge", "setting": "CA09 H1N1 virus; mouse, in vivo", "result": 33, "unit": "%"}
    ]}
  ]
}
